In patent publication US7091311B2, “Peptides and compounds that bind to a receptor” (SmithKline Beecham Corporation, priority 1996, dated 2006):
Values joined by “and” are separate entries in the source; they are usually repeats but may differ in a detail not shown here. Identical values can stand only once. Like-named read-outs stand apart in the source and are kept apart here. Where a SMILES comes first, the peptide text is derived from it. Where no end group is shown, it is not given here.

Legend:
[1] = target: T1, human TPO-R (Homo sapiens, UniProt P40238); test: thrombopoietin dependent cell proliferation assay, TPO-R transfected Ba/F3 cells (MTT); type: cell-based
T1 construct: transfected with full length human TPO-R; expressed in transfected cells; host or cells: murine Ba/F3 cells
T1 sequence (P40238 26-635): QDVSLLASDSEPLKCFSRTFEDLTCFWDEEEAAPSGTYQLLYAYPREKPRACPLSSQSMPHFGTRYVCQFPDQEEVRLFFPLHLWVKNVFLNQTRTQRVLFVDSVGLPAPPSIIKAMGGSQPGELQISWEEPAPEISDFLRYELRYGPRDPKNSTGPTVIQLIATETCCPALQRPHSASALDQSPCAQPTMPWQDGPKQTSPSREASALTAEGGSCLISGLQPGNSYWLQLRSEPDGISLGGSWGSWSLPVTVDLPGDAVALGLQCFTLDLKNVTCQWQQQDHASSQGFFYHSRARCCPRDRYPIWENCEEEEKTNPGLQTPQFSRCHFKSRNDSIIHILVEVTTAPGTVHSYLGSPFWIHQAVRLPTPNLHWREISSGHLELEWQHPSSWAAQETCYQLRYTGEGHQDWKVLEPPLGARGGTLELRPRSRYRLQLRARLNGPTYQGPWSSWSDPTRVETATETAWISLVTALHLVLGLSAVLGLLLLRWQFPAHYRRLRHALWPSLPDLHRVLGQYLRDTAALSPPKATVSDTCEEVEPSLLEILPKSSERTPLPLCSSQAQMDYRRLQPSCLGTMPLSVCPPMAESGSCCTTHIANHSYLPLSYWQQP
Protocol: Bioactivity of the peptides can be measured using a thrombopoietin dependent cell proliferation assay. Murine IL-3 dependent Ba/F3 cells were transfected with full length human TPO-R. In the absence of IL-3 (WEHI-3 conditioned media), these cells are dependent on TPO for proliferation.
The cells were grown in complete RPMI-10 media, containing 10% WEHI-3 conditioned media, then washed twice in PBS, resuspended in media which lacked WEHI-3 conditioned media, and added to wells containing dilutions of peptide or TPO at 2×10^4 cells/well. The cells were incubated for 48 hours at 37° C. in a humidified 5% Co2 atmosphere and metabolic activity was assayed by the reduction of MTT to formazan, with absorbance at 570 nm measured on an ELISA plate reader.

[2] = target: T2, TPO receptor (Homo sapiens, UniProt P40238); test: microphysiometer assay: rate of acidification of the extracellular medium in response to TPO receptor stimulation; type: cell-based; details: Table 9; read-out: EC50 (nM) Microphys.
T2 sequence (P40238 26-635): T1 sequence (P40238 26-635)
Protocol: In this example cyclized compounds were subjected to three assays. […] Finally, a microphysiometer (Molecular Devices Corp.) assay was performed. […] The ranges for EC50 are symbolically indicated as for IC50 described above.

[3] = target: T3, TPO-R (Homo sapiens, UniProt P40238); test: competition binding assay: MBP-TPO156 binding to immobilized TPO-R (ELISA)
T3 construct: made in house
T3 sequence (P40238 26-491 limits assumed): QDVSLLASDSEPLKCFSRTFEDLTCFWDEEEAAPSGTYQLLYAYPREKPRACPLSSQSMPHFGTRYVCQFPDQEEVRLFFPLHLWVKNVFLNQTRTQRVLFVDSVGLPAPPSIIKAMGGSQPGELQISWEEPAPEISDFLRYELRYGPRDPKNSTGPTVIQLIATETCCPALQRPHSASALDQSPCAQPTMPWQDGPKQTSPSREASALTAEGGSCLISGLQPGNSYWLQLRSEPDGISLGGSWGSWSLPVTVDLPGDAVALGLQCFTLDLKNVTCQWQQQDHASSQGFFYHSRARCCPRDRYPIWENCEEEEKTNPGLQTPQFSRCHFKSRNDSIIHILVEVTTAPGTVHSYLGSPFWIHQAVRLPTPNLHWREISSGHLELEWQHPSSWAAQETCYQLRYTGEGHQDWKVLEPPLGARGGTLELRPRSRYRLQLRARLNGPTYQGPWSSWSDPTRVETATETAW
Protocol: A variety of methods can be used to evaluate IC50 values. For example, an equilibrium binding ELISA assay, using either MBP-TPO or lacI-peptide tracer, was used to determine whether the peptides inhibit the binding of TPO to the extracellular domain of the TPO receptor. Typically, the IC50 value were determined using the free peptide. The IC50value can be determined using the free peptide, which optionally can be C-terminally amidated, or can be prepared as an ester or other carboxy amide.
Binding affinities of chemically synthesized peptides for TPO-R were measured in a competition binding assay. The wells of a microtiter plate were coated with 1 mg streptavidin, blocked with PBS/1% BSA, followed by 50 ng of biotinylated anti-receptor immobilizing antibody (Ab179). The wells were then treated with a 1:10 dilution of soluble TPO-R harvest. Various concentrations of peptide or peptide mimetic were mixed with a constant amount of a truncated form of TPO consisting of residues 1–156 fused to the C-terminus of maltose binding protein (MBP-TPO156). The peptide MBP-TPO156 mixtures were added to the TPO-R coated wells, incubated for 2 hours at 4° C. and then washed with PBS. The amount of MBP-TPO156 that was bound at equilibrium was measured by adding a rabbit anti-sera directed against MBP, followed by alkaline phosphatase conjugated goat anti-rabbit IgG. The amount of alkaline phosphatase in each well was then determined using standard methods.
The assay is conducted over a range of peptide concentrations and the results are graphed such that the y axis represents the amount of bound MBP-TPO156 and the x axis represents the concentration of peptide or peptide mimetic.

[4] = tested on: marrow cells; test: mouse marrow cells in liquid culture, AChE-staining megakaryocytes; type: cell-based, Balb/C mice
Protocol: To assess the feasibility of mice as a convenient test species, several in vitro experiments, designed to measure the activity of the test compounds on the mouse receptor, have been done. First, marrow cells, harvested from the femurs of 8 to 9 week one Balb/C mice, were incubated for 7 days in liquid culture with either rhuTPO or various concentrations of the test peptides. At the end of the incubation period, the cultures were concentrated by Cytospin, stained for acetylcholinesterase (AChE, a diagnostic of mouse megakaryocytes), and counted by microscopic analysis. One (1) nM rhuTPO gave rise to the outgrowth of very large (>40 um) non-adherent cells that stain for AChE. These cells appear to be mature megakaryocytes. From an initial seeding of 10^6 total marrow cells/ml (in 50 ml cultures) an estimated 1 to 2×10^6 megakaryocytes developed. This response to TPO was designated as “maximal”. Control cultures containing no added growth factors produced very few AChE-positive cells. […] This finding was the first evidence that this peptide family is active on the murine receptor. In a second experiment, marrow cells were harvested and cultured in semi-solid medium (methylcellulose) containing either no factors, 1 nM rhuTPO, or 10 uM Peptide A. After 7 days in culture, colonies of large cell (presumed to be megakaryocytes) were counted and grouped into small colonies (3–5 cells) or large colonies (greater than 6 cells). TPO and the test peptides both produced substantially more colonies of both sized than did the negative control cultures.

[5] = tested on: marrow cells; test: marrow cells in semi-solid medium (methylcellulose), colonies of large cells; type: cell-based, Balb/C mice; details: 1 nM TPO; 7 days in methylcellulose; replicate cultures
Protocol: To assess the feasibility of mice as a convenient test species, several in vitro experiments, designed to measure the activity of the test compounds on the mouse receptor, have been done. First, marrow cells, harvested from the femurs of 8 to 9 week one Balb/C mice, were incubated for 7 days in liquid culture with either rhuTPO or various concentrations of the test peptides. At the end of the incubation period, the cultures were concentrated by Cytospin, stained for acetylcholinesterase (AChE, a diagnostic of mouse megakaryocytes), and counted by microscopic analysis. One (1) nM rhuTPO gave rise to the outgrowth of very large (>40 um) non-adherent cells that stain for AChE. These cells appear to be mature megakaryocytes. From an initial seeding of 10^6 total marrow cells/ml (in 50 ml cultures) an estimated 1 to 2×10^6 megakaryocytes developed. This response to TPO was designated as “maximal”. Control cultures containing no added growth factors produced very few AChE-positive cells. […] In a second experiment, marrow cells were harvested and cultured in semi-solid medium (methylcellulose) containing either no factors, 1 nM rhuTPO, or 10 uM Peptide A. After 7 days in culture, colonies of large cell (presumed to be megakaryocytes) were counted and grouped into small colonies (3–5 cells) or large colonies (greater than 6 cells). […]

[6] = Table 9, read-out: EC50 (nM) Prolif.
[7] = Table 3, free peptide, read-out: Affinity (IC50)

CC[C@H](C)[C@H](N)C(=O)N[C@@H](CCC(=O)O)C(=O)NCC(=O)N1CCC[C@H]1C(=O)N[C@H](C(=O)N[C@@H](CC(C)C)C(=O)N[C@@H](CCCNC(=N)N)C(=O)N[C@@H](CCC(N)=O)C(=O)N[C@@H](Cc1c[nH]c2ccccc12)C(=O)N[C@@H](CC(C)C)C(=O)N[C@@H](C)C(=O)N[C@@H](C)C(=O)N[C@@H](CCCNC(=N)N)C(=O)N[C@@H](C)C(=O)NCCCC[C@H](NC(=O)CCNC(=O)[C@H](C)NC(=O)[C@H](CCCNC(=N)N)NC(=O)[C@H](C)NC(=O)[C@H](C)NC(=O)[C@H](CC(C)C)NC(=O)[C@H](Cc1c[nH]c2ccccc12)NC(=O)[C@H](CCC(N)=O)NC(=O)[C@H](CCCNC(=N)N)NC(=O)[C@H](CC(C)C)NC(=O)[C@@H](NC(=O)[C@@H]1CCCN1C(=O)CNC(=O)[C@H](CCC(=O)O)NC(=O)[C@@H](N)[C@@H](C)CC)[C@@H](C)O)C(N)=O)[C@@H](C)O
EC50 [1, 6]: ≤ 500 nM
EC50 ([1]; Table 10, value outside parentheses, read-out: EC50 (nM) Cell Prolif.): ≤ 500 nM
EC50 [2]: ≤ 500 nM
IC50 ([3]; Table 7, dimer compounds, read-out: IC50): ≤ 500 nM
IC50 ([3]; Table 9, read-out: IC50): ≤ 500 nM

CC[C@H](C)[C@@H]1NC(=O)[C@@H](N)CSSC[C@@H](C(N)=O)NC(=O)[C@H](C)NC(=O)[C@H](CCCNC(=N)N)NC(=O)[C@H](C)NC(=O)[C@H](C)NC(=O)[C@H](CC(C)C)NC(=O)[C@H](Cc2c[nH]c3ccccc23)NC(=O)[C@H](CCC(N)=O)NC(=O)[C@H](CCCNC(=N)N)NC(=O)[C@H](CC(C)C)NC(=O)[C@H]([C@@H](C)O)NC(=O)[C@@H]2CCCN2C(=O)CNC(=O)[C@H](CCC(=O)O)NC1=O (HELM PEPTIDE1{C.I.E.G.P.T.L.R.Q.W.L.A.A.R.A.C.[am]}$PEPTIDE1,PEPTIDE1,1:R3-16:R3$$$V2.0)
EC50 [1, 6]: ≤ 500 nM

CC[C@H](C)[C@@H]1NC(=O)[C@H](Cc2c[nH]c3ccccc23)NC(=O)[C@H](CCC(=O)O)NC(=O)[C@H](CCCNC(=N)N)NC(=O)[C@H](CC(C)C)NC(=O)[C@H]([C@@H](C)O)NC(=O)[C@@H]2CCCN2C(=O)CNC(=O)[C@H](CC(=O)O)NC(=O)[C@H](C)NC(=O)CSC[C@@H](C(N)=O)NC(=O)[C@H](C(c2ccccc2)c2ccccc2)NC(=O)[C@H](CO)NC1=O [F - DiPh-Ala] (HELM PEPTIDE1{[O=C(C[*:3])[*:2]].A.D.G.P.T.L.R.E.W.I.S.[O=C([C@@H](N[*:1])C(c1ccccc1)c1ccccc1)[*:2]].C.[am]}$PEPTIDE1,PEPTIDE1,1:R3-14:R3$$$V2.0; C-terminus assumed)
IC50 ([3]; Table 6, read-out: IC50): ≤ 500 nM

CC[C@@H]1NC(=O)[C@H]([C@@H](C)CC)NC(=O)[C@H](Cc2c[nH]c3ccccc23)NC(=O)[C@H](CCC(=O)O)NC(=O)[C@H](CCCNC(=N)N)NC(=O)[C@H](CC(C)C)NC(=O)[C@H]([C@@H](C)O)NC(=O)[C@@H]2CCCN2C(=O)CNC(=O)[C@H](CC(=O)O)NC(=O)[C@H](C)NC(=O)CSC[C@@H](C(N)=O)NC(=O)[C@H](C(c2ccccc2)c2ccccc2)NC1=O [S,F - Abu, DiPh-Ala] (HELM PEPTIDE1{[O=C(C[*:3])[*:2]].A.D.G.P.T.L.R.E.W.I.[Abu].[O=C([C@@H](N[*:1])C(c1ccccc1)c1ccccc1)[*:2]].C.[am]}$PEPTIDE1,PEPTIDE1,1:R3-14:R3$$$V2.0; C-terminus assumed)
IC50 ([3]; Table 6, read-out: IC50): ≤ 500 nM

AF 12885 with streptavidin (SA): complexed biotinylated peptide: G G C A D G P T L R E W I S F C G G K (Biotin) preincubated with streptavidin, 4:1 molar ratio
potency of pre-formed streptavidin complex relative to the free peptide ([1]; peptide preincubated with streptavidin at 4:1 molar ratio, FIG. 2): approximately 10 times

GNADGPTLRQWLEGRRPKN [G N A D G P T L R Q W L E G R R P K N]
IC50 [3, 7]: ≤ 500 nM

GPTLRQWL [G P T L R Q W L]
IC50 [3, 7]: > 200000 nM

H-IEGPTLRQWLAARA-NH2
EC50 [1, 6]: ≤ 500 nM
IC50 ([3]; Table 9, read-out: IC50): ≤ 500 nM

LAIEGPTLRQWLHGNGRDT [L A I E G P T L R Q W L H G N G R D T]
IC50 [3, 7]: ≤ 500 nM

S.A. alone: streptavidin alone [reference compound]
Response (AChE-staining megakaryocytes) ([4]; concentration tested 1000 nM (putative 1:4 complex), 7 days, maximal = compared to recombinant human TPO, 25–30% ACE staining cells): none

SIEGPTLREWLTSRTPHS [S I E G P T L R E W L T S R T P H S]
IC50 [3, 7]: ≤ 500 nM

TIKGPTLRQWLKSREHTS [T I K G P T L R Q W L K S R E H T S]
IC50 [3, 7]: ≤ 500 nM

TPO (R & D): recombinant human TPO
megakaryocytes developed (estimated) ([4]; 1 nM rhuTPO, initial seeding 10^6 total marrow cells/ml in 50 ml cultures, 7 days): 1 to 2×10^6
Response (AChE-staining megakaryocytes) ([4]; concentration tested 1 nM, 7 days liquid culture): “maximal”
large colonies, 6–12 large cells [5]: 6 and 1 and 8 and 3
small colonies, 3–5 large cells [5]: 15 and 12 and 16 and 13
